Results as given in patent US20240325548A1, “DYNAMIC BIOACTIVE SCAFFOLDS AND THERAPEUTIC USES THEREOF AFTER CNS INJURY” (Northwestern University, priority 2021, published 2024).

Biological target: T1, β1-INTEGRIN (ITGB1) (Homo sapiens, UniProt P05556)
T1 construct: endogenous in cells; host or cells: hNPCs differentiated from human embryonic stem cells HUES 64
Test: ITGB1 activation and intracellular signaling in hNPCs treated with IKVAV PAs (confocal microscopy, WB)
Assay type: cell-based
Conditions: for activation of ITGB1 and downstream pathway (ILK, p-FAK/FAK) with Ca2+ added: PA mixed with 5 mM CaCl2; for active ITGB1 and downstream effectors ILK and p-FAK: relative to other IKVAV PAs, IKVAV peptide, laminin or ornithine
From the text: Neural progenitor cells (NPCs) were differentiated from human embryonic stem cells HUES 64 (Harvard University) (see FIG. 2C). In short, 70% confluent stem cell cultures grown in Matrigel (Thermo Fisher) coated plates with mTESR medium (STEMCELL Technologies), were switched to N2B27 medium (50% DMEM: F12, 50% Neurobasal, supplemented with NEAA, Glutamax, N2 and B27; Gibco) containing dual SMAD inhibitors (SB431542, DNSK International and LDN-193189, Tocris) for 12 days to induce the generation of neural progenitors. Neuralization was enhanced by supplementing medium with laminin from day 5 to 12. Next, neural rosettes were dissociated with neural rosette selection reagent (STEMCELL Technologies) to obtain NPCs, which are expanded in N2B27 (Gibco) medium supplemented with bFGF (Millipore). For experimentation in the different PA platforms, NPCs were dissociated with Accutase (Innovative Cell technology), and cultured in the distinct platforms with DMEM: F12+N2+B27 medium with hyclone penicillin-streptomycin (GE Healthcare) and ascorbic acid (0.2 μg/mL; Sigma-Aldrich).
For IKVAV PA treatments, hNPCs were cultured on ornithine coatings (German Glass, Chemglass Life Science) in 6 well and 24 well plates at a density of 500,000 cells/well and 80,000 cells/well respectively. hNPCs were treated with […] of IKVAV PAs ([PA]=6 mM, [KCl]=3 mM, [NaCl]=150 mM) or recombinant laminin protein (10 mg/mL) in solution. IKVAV PA2 and IKVAV PA5 were also mixed with 5 mM CaCl2) at a ratio PA:CaCl2) 6:1 to treat hNPCs. For 2D experiments, hNPCs were cultured on the different IKVAV PAs or laminin coatings in 6 well and 24 well plates at densities mentioned above. For co-assembled experiments, hNPCs were cultured on the different co-assembled PA coatings in 6 well and 24 well plates at a density of 400,000 cells/well and 50,000 cells/well respectively.
hNPCs were fed 4 times a week with DMEM: F12+N2^+B27 medium with hyclone penicillin-streptomycin and ascorbic acid. After 24 h, 72 h 1- or 2-weeks in vitro, cell lysates were harvested or fixed for WB or ICC, respectively. Three replicates per condition and at least three independent experiments were carried out for all conditions investigated.
For immunofluorescence, fixed primary cultures or free-floating tissue sections (40 m Thick) were incubated in blocking buffer containing 0.02% Triton-X (Sigma-Aldrich), 1% NHS (Gibco) and PBS 1× (Gibco). Samples were incubated with primary antibodies over night at 4° C. Alexa-488, Alexa-555 and/or Alexa-647 (1:500, Thermofisher) were used as secondary antibodies. DAPI (1:500, Thermofisher) was used to stain nuclei. Finally, the samples were mounted on coverslips with Immu-Mount (Fisher Scientific) solution for imaging.
RIPA buffer (Thermofisher) with a cocktail of Halt Protease and Phosphatase Inhibitors (Thermofisher) was used to extract protein from in vitro and in vivo samples. For in vivo studies, spinal cord tissue was then sonicated using a horn sonicator (Branson) to break up the tissue. A Pierce™ BCA Protein Assay Kit (Thermofisher) was used to determine protein content for all samples used. Protein extracts obtained from cell cultures or tissue were separated using an SDS-polyacrylamide gel and electro-transferred to a nitrocellulose membrane (Bio-Rad). Membranes were blocked for 30 minutes to 1 hour using a 5% milk solution (Bio-Rad) and incubated over night with primary antibodies. Corresponding secondary HRP-conjugated antibodies (1:1000, ThermoFisher) were used for 1 h at room temperature. Radiance Bioluminescent ECL substrate (Azure Biosystems) was used to detect protein signal. The membranes were imaged using the Azure Biosystems imager and densitometry analysis were performed using ImageJ software.

T1 sequence (P05556 21-798): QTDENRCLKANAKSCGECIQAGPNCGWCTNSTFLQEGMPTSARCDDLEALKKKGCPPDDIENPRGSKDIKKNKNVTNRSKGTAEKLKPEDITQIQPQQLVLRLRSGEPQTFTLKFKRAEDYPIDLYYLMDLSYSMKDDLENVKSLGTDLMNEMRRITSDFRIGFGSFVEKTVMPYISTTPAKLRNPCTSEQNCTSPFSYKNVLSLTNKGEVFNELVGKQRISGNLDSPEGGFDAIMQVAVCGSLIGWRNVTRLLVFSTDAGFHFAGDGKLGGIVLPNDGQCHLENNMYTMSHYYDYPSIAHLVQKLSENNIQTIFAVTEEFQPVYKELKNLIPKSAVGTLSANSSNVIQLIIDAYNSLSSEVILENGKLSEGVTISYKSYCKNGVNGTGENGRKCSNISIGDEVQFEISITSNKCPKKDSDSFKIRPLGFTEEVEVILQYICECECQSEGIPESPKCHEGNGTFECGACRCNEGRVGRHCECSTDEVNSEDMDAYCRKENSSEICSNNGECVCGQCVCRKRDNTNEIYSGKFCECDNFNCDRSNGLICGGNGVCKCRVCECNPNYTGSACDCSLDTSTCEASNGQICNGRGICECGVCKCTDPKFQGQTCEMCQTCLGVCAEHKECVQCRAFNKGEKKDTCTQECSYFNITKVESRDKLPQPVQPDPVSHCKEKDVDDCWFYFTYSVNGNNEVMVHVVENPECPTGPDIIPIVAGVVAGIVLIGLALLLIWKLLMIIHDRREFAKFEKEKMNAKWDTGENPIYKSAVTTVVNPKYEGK

Question: With C16-A2G2E4GIKVAV [IKVAV PA2] as the substance, how does the “activation of ITGB1 and downstream pathway (ILK, p-FAK/FAK) with Ca2+ added” value read?
Answer: decreased

Question: What about the “active ITGB1 and downstream effectors ILK and p-FAK” value of the same substance?
Answer: substantially higher

Question: For C16-G4E4GIKVAV [IKVAV PA5], which “activation of ITGB1 and downstream pathway (ILK, p-FAK/FAK) with Ca2+ added” value is on record?
Answer: decreased

Question: What about the “active ITGB1 and downstream effectors ILK and p-FAK” value of the same substance?
Answer: substantially higher

Question: Which “in vitro bioactivity (summary)” value does the source give for C16-V2A2E4GIKVAV [IKVAV PA1] here?
Answer: low level of in vitro bioactivity

Question: Which “in vitro bioactivity (summary)” value does the source give for C16-VAG2E4GIKVAV [IKVAV PA4] here?
Answer: low level of in vitro bioactivity

Question: What about the “active ITGB1 and downstream effectors ILK and p-FAK” value of the same substance?
Answer: intermediate level of activation
